US11026426B2, “Oxadiazole and phenol derivatives as antibacterial and/or herbicidal agents” (NORTHERN ILLINOIS RESEARCH FOUNDATION, priority 2017, dated 2021)
Read-outs that look alike come from different tables or passages of the source.

Tests used:
Format in all cases: cell-based
[1] = system: Burkholderia thailandensis
Pseudomonas aeruginosa = test: Antibacterial assay zone of inhibition Pa
Micrococcus luteus = test: Antibacterial assay zone of inhibition Ml
Klebsiella pneumonia = test: Antibacterial assay zone of inhibition Kp
Escherichia coli = test: Antibacterial assay zone of inhibition Ec
Bacillus cereus = test: Antibacterial assay zone of inhibition Bc
Mycobacterium smegmatis = test: Antibacterial assay zone of inhibition Ms
Corynebacterium xerosis = test: Antibacterial assay zone of inhibition Cx
[2] = system: Corynebacterium pseudodiphtheriae; test: Antibacterial assay zone of inhibition Cp

Row | SMILES | Antibacterial Pa zone of inhibition (Pseudomonas aeruginosa; 0.1 mM) [millimeters] | Antibacterial Pa zone of inhibition (Pseudomonas aeruginosa; 0.5 mM) [millimeters] | Antibacterial Pa zone of inhibition (Pseudomonas aeruginosa; 1 mM) [millimeters] | Antibacterial Ml zone of inhibition (Micrococcus luteus; 0.1 mM) [millimeters] | Antibacterial Ml zone of inhibition (Micrococcus luteus; 0.5 mM) [millimeters] | Antibacterial Ml zone of inhibition (Micrococcus luteus; 1 mM) [millimeters] | Antibacterial Kp zone of inhibition (Klebsiella pneumonia; 0.1 mM) [millimeters] | Antibacterial Kp zone of inhibition (Klebsiella pneumonia; 0.5 mM) [millimeters] | Antibacterial Kp zone of inhibition (Klebsiella pneumonia; 1 mM) [millimeters] | Antibacterial Ec zone of inhibition (Escherichia coli; 0.1 mM) | Antibacterial Ec zone of inhibition (Escherichia coli; 0.5 mM) | Antibacterial Bc zone of inhibition (Bacillus cereus; 0.1 mM) [millimeters] | Antibacterial Bc zone of inhibition (Bacillus cereus; 0.5 mM) [millimeters] | Antibacterial Bc zone of inhibition (Bacillus cereus; 1 mM) [millimeters] | Antibacterial Ms zone of inhibition (Mycobacterium smegmatis; 0.1 mM) [millimeters] | Antibacterial Ms zone of inhibition (Mycobacterium smegmatis; 0.5 mM) [millimeters] | Antibacterial Ms zone of inhibition (Mycobacterium smegmatis; 1 mM) [millimeters] | Antibacterial Cx zone of inhibition (Corynebacterium xerosis; 0.1 mM) [millimeters] | Antibacterial Cx zone of inhibition (Corynebacterium xerosis; 0.5 mM) [millimeters] | Antibacterial Cx zone of inhibition (Corynebacterium xerosis; 1 mM) [millimeters] | also measured
1 | CC(C)(C)c1ccc(OCc2nnc(-c3nc4ccccc4s3)o2)cc1 [HGN-836] | 0 | 0 | 0 | 0 | 0 | 0 | 0 | 0 | 7 | 0 NT millimeters | 0 NT millimeters | 0 | 0 | 13 | 0 | 0 | 0 | 0 | 0 | 11 | Antibacterial Bt zone of inhibition ([1]; 0.1 mM): 0 15 18 millimeters; Antibacterial Bt zone of inhibition ([1]; 0.5 mM): 0 15 18 millimeters; Antibacterial Bt zone of inhibition ([1]; 1 mM): 0 15 18 millimeters; Antibacterial Cp zone of inhibition ([2]; 0.1 mM): 0 millimeters; Antibacterial Cp zone of inhibition ([2]; 0.5 mM): 0 millimeters; Antibacterial Cp zone of inhibition ([2]; 1 mM): 0 millimeters
2 | c1ccc(OCc2nnc(-c3cc4ccccc4[nH]3)o2)cc1 [HGN-811] | 0 | 0 | 0 | 0 | 0 | 0 | 0 | 0 | 0 | 0 millimeters | 0 millimeters | 0 | 12.5 | 16 | 0 | 0 | 0 | 0 | 0 | 0 | Antibacterial Bt zone of inhibition [1]: 0 8 12 millimeters; Antibacterial Ec zone of inhibition (Escherichia coli; 1 mM): 0 millimeters; Antibacterial Cp zone of inhibition ([2]; 0.1 mM): 0 millimeters; Antibacterial Cp zone of inhibition ([2]; 0.5 mM): 0 millimeters; Antibacterial Cp zone of inhibition ([2]; 1 mM): 0 millimeters
3 | Clc1ccc(OCc2nnc(-c3nc4ccccc4s3)o2)cc1Cl [HGN-834] | 0 | 0 | 0 | 0 | 0 | 0 | 0 | 0 | 0 | 0 millimeters | 0 millimeters | 0 | 11 | 18 | 0 | 0 | 0 | 0 | 0 | 0 | Antibacterial Bt zone of inhibition ([1]; 0.1 mM): 0 millimeters; Antibacterial Bt zone of inhibition ([1]; 0.5 mM): 0 millimeters; Antibacterial Bt zone of inhibition ([1]; 1 mM): 0 millimeters; Antibacterial Ec zone of inhibition (Escherichia coli; 1 mM): 0 millimeters; Antibacterial Cp zone of inhibition ([2]; 0.1 mM): 0 millimeters; Antibacterial Cp zone of inhibition ([2]; 0.5 mM): 0 millimeters; Antibacterial Cp zone of inhibition ([2]; 1 mM): 0 millimeters
